{"source": "patent US9556235B2", "about": "“F11 receptor (F11R) antagonists as therapeutic agents” (The Research Foundation for The State University of New York, priority 2003, dated 2017)", "molecules": {"B1": {"name": "sF11R: secreted recombinant F11R, extracellular portion (amino acids ser-1 to asn-208), His tag, from COS-7 cells (protein)", "chain": "SVTVHSSEPEVRIPENNPVKLSCAYSGFSSPRVEWKFDQGDTTRLVCYNNKITASYEDRVTFLPTGITFKSVTREDTGTYTCMVSEEGGNSYGEVKVKLIVLVPPSKPTVNIPSSATIGNRAVLTCSEQDGSPPSEYTWFKDGIVMPTNPKSTRAFSNSSYVLNPTTGELVFDPLSASDTGEYSCEARNGYGTPMTSNAVRMEAVERN", "modifications": "left off: small tags and cut ends", "notes": "secreted recombinant F11R, extracellular portion (amino acids ser-1 to asn-208), His tag, from COS-7 cells"}}, "key": {"human platelets [1]": {"system": "human platelets", "assay": "Potentiation by M.Ab.F11 of collagen-induced platelet aggregation", "assay_type": "cell-based", "description": "(§1) Whole blood was collected into the anticoagulant ACD (pH 4.6), as detailed (Kornecki et al. (1990) J. Biol. Chem., 265:10042-10048, incorporated herein by reference). Platelets were washed and isolated by differential centrifugation, and resuspended in a Tyrode-albumin (0.35%) solution buffered with 11.9 mM sodium bicarbonate (pH 7.35) in the presence of apyrase, heparin, and PGE1 (Id.). […] Platelet aggregation was measured in a Chronolog Whole Blood Lumi-Aggregometer (Chronolog Corp. Havertown, Pa.). […] The lowest concentration of each agonist which caused platelet aggregation was determined in these experiments for each donor on the day of blood collection.\nHowever, the addition of sub-threshold amounts of collagen and M.Ab.F11 triggered a full-blown platelet aggregation."}, "platelets": {"system": "platelets", "assay": "Platelet adhesion to immobilized M.Ab.F11 (BCA protein assay)", "assay_type": "cell-based, human", "settings": "for inhibition of the adhesion of platelets to immobilized M.Ab.F11: M.Ab.F11 150 ng/well; for inhibition in platelet adhesion assay (immobilized M.Ab.F11): FIG. 3 legend, concentration not given", "description": "An adhesion assay, based on the determination of cell-derived protein using Bicinchoninic Acid (BCA) protein assay (Tuszynski et al. (1990) Anal. Biochem 184:189-191, incorporated herein by reference), was used for platelet adhesion to immobilized M.Ab.F11. Wells of a 96-well plate (Nunc-Immuno™ Plate, MaxiSorp™ Surface, flat bottomed) were incubated overnight at 4° C. with […] of a 1 mg/ml solution of M.Ab.F11. Wells were aspirated, washed, treated with TBS/1% BSA for 1 h at 37° C., and washed with TBS/0.1 mM MnCl2/0.1 mM CaCl2. Isolated platelet suspensions (100 μl) (3×10^8/ml) were added and plates were incubated at 37° C. for 90 min. Total platelet-associated protein was determined by dissolving the attached platelets directly with 100 μl BCA. Platelets were incubated at 37° C. for 2 h, and absorbance (595 nm) determined (Dynatech Laboratories, Chantilly, Va.).\nThe five peptides with sequences shown in Table 1 were tested also for their effects on the adhesion of platelets to immobilized M.Ab.F11 (applied at a concentration of 150 ng/well). […] Peptide 1 (SEQ ID NO: 1), added at 50 μM caused about 60% inhibition of the adhesion of platelets to immobilized M.Ab.F11, and with 500 μM of peptide 1 (SEQ ID NO: 1), about 70% inhibition was observed. Peptide 4 (SEQ ID NO: 4), at 50 μM, produced very little (10%) inhibition compared to peptide 1 (SEQ ID NO: 1) at similar concentrations. However, 500 μM of peptide 4 (SEQ ID NO: 4) produced approximately 70% inhibition in the adhesion of platelets to M.Ab.F11, similar to that observed with peptide 1 (SEQ ID NO: 1) at the same concentration."}, "human platelets [2]": {"system": "human platelets", "assay": "Potentiation by M.Ab.F11 of ADP-induced platelet aggregation (sub-threshold M.Ab.F11 plus ADP)", "assay_type": "cell-based", "settings": "for inhibition of M.Ab.F11 plus ADP-induced platelet aggregation: M.Ab.F11 0.3 μg/ml, ADP 0.5 μM", "description": "as §1\nSynthetic peptides according to published sequences of F11R were prepared."}, "apoE KO mice": {"system": "apoE KO mice", "assay": "Plaque formation in animal model of atherosclerosis (apoE KO mice)", "assay_type": "in vivo", "settings": "for physical appearance of the animals (secondary consequences of atherosclerosis): 5 month period, Western-type diet, FIG. 7", "description": "The results of an in-vivo study of the effects of F11R peptide 4D on plaque formation in an animal model of atherosclerosis (apoE knockout/KO mice) are discussed below. The atherosclerosis-prone apoE KO is a strain of mice that has been genetically engineered to develop cardiovascular disease. This genetic abnormality is manifested by the continuous development of atherosclerotic plaques from early age to adulthood, accompanied by deteriorating, sickly appearance.\nThe study was conducted on atherosclerosis prone apoE deficient (knock-out female mice of 6 weeks of age) of a C57BL/6 background. The mice were obtained from the Jackson Laboratory (Bar Harbor, Me.). Seven animals were injected daily with peptide 4D. In parallel, control groups, consisting of animals injected with water, the vehicle used to deliver peptide 4D, was maintained. All mice were fed a Western-type diet.\nAt pre-determined intervals of 3, 4 and 5 months of treatment, the aortae were dissected. Following the dissection of the aortae of all mice, morphometric analyses of lesion areas was performed on aortic arch sections stained with Harris hematoxylin-eosin. The total intimal lesion areas were quantified by taking the average of 6 sections spaced 30 μm apart, beginning at the base of the aortic root of each animal. Images were viewed and captured with a microscope (Nikon) equipped with a color video camera (Motic Images Plus 2.0) attached to a computerized imaging system with Image-J.\nEn face assays (to visualize the entire aorta) were conducted for comparison of the size and number of atherosclerotic plaques in treated and untreated animals using an Oil red O staining procedure, as shown in FIG. 9. […] FIG. 9B illustrates the differences in the number and size of plaques in animals following a 4-month period of injection with peptide 4D, comparing animals “P4, P5” treated with peptide 4D versus controls “H3, H4, H5”.\nThe proximal aortae of treated an untreated groups were also assessed by hematoxylin-eosin staining of the proximal aorta (root assay) for the size of the lesions/plaques and the necrotic core area within the proximal aorta. FIG. 10A illustrates the plaques and the size of the necrotic core area of animals treated or not treated with peptide 4D for a 3 month period."}, "human platelets [3]": {"system": "human platelets", "assay": "M.Ab.F11-induced platelet aggregation", "assay_type": "cell-based", "settings": "sF11R 1 μg/ml; M.Ab.F11 2.45 μg/ml; FIG. 1A", "description": "as §1\nThe soluble polypeptide sF11R was tested in the platelet aggregation assay to determine its effect on the rate and extent of platelet aggregation.\nThe F11R/JAM-A receptor is constitutively expressed on the surface membrane of human platelets. Studies were carried out testing the effects of Fab fragments prepared from M.Ab.F11, i.e., on the M.Ab.F11-induced platelet aggregation that is triggered by M.Ab.F11 binding to F11R. It was determined that these Fab fragments interfered with the ability of the intact M.Ab.F11 antibody to activate platelets through the constitutively-expressed F11R.\nAs shown below, platelet aggregation was assayed in the presence of either 0.1 μg/ml (FIG. 4a), or 1.0 μg/ml (FIG. 4b). […]"}, "[4]": {"settings": "collagen 0.5 μg/ml (sub-threshold), peptide concentration not given"}, "[5]": {"settings": "peptide approximately 50-500 μM"}}, "note": "“Also recorded” adds a separate entry of the source.", "data": [{"molecule": "EQDGSPPSEYTWFKD [peptide 5, F11R amino acids 128-142, control peptide]", "values": [{"measurement": "block of potentiation by M.Ab.F11 of collagen-induced platelet aggregation", "setting": "human platelets [1]; [4]", "value": "did not inhibit platelet aggregation"}, {"measurement": "inhibition of the adhesion of platelets to immobilized M.Ab.F11", "setting": "platelets; peptide 500 μM", "value": "did not cause significant inhibition"}, {"measurement": "inhibition of M.Ab.F11 plus ADP-induced platelet aggregation", "setting": "human platelets [2]; [5]", "value": "no inhibitory effects"}, {"measurement": "inhibition of M.Ab.F11 plus ADP-induced platelet aggregation", "setting": "human platelets [2]; peptide approximately 50-500 μM, listed as SEQ ID NO: 5", "value": "do not inhibit aggregation"}]}, {"molecule": "KSVTREDTGTYTC [peptide 4]", "values": [{"measurement": "block of potentiation by M.Ab.F11 of collagen-induced platelet aggregation", "setting": "human platelets [1]; [4]", "value": "completely blocked"}, {"measurement": "inhibition in platelet adhesion assay (immobilized M.Ab.F11)", "setting": "platelets", "value": "inhibition"}, {"measurement": "inhibition of the adhesion of platelets to immobilized M.Ab.F11", "setting": "platelets; peptide 50 μM", "value": 10, "unit": "%"}, {"measurement": "inhibition of the adhesion of platelets to immobilized M.Ab.F11", "setting": "platelets; peptide 500 μM", "value": "about 70%"}, {"measurement": "inhibition of M.Ab.F11 plus ADP-induced platelet aggregation", "setting": "human platelets [2]; peptide approximately 50 μM", "value": "completely block"}, {"measurement": "inhibition of M.Ab.F11 plus ADP-induced platelet aggregation", "setting": "human platelets [2]; peptide approximately 50 μM, listed as Peptide 4", "value": "completely inhibited aggregation"}]}, {"molecule": "SVTVHSSEPEVRIPENNPVKLSC [peptide 1, N-terminal peptide of F11R, amino acids 1-23]", "values": [{"measurement": "block of potentiation by M.Ab.F11 of collagen-induced platelet aggregation", "setting": "human platelets [1]; [4]", "value": "completely blocked"}, {"measurement": "inhibition in platelet adhesion assay (immobilized M.Ab.F11)", "setting": "platelets", "value": "inhibition"}, {"measurement": "inhibition of the adhesion of platelets to immobilized M.Ab.F11", "setting": "platelets; peptide 50 μM", "value": "about 60%"}, {"measurement": "inhibition of the adhesion of platelets to immobilized M.Ab.F11", "setting": "platelets; peptide 500 μM", "value": "about 70%"}, {"measurement": "inhibition of M.Ab.F11 plus ADP-induced platelet aggregation", "setting": "human platelets [2]; peptide approximately 50 μM", "value": "completely inhibited"}, {"measurement": "inhibition of M.Ab.F11 plus ADP-induced platelet aggregation", "setting": "human platelets [2]; peptide approximately 50 μM, listed as Peptide 1", "value": "completely inhibited platelet aggregation"}, {"measurement": "persistence of inhibition of M.Ab.F11 plus ADP-induced platelet aggregation", "setting": "human platelets [2]; peptide approximately 50 μM, examined after a 12 h period", "value": "aggregation did not ensue"}]}, {"molecule": "SYEDRVTFLPTGITFKSVTRED [peptide 2, F11R amino acids 55-76, control peptide]", "values": [{"measurement": "inhibition of the adhesion of platelets to immobilized M.Ab.F11", "setting": "platelets; peptide 500 μM", "value": "did not cause significant inhibition"}, {"measurement": "inhibition of M.Ab.F11 plus ADP-induced platelet aggregation", "setting": "human platelets [2]; [5]", "value": "no inhibitory effects"}, {"measurement": "inhibition of M.Ab.F11 plus ADP-induced platelet aggregation", "setting": "human platelets [2]; peptide approximately 50-500 μM, listed as SEQ ID NO: 2", "value": "do not inhibit aggregation"}]}, {"molecule": "WKFDQGDTTRLVEYNNKITASY [peptide 3, F11R amino acids 35-56, control peptide]", "values": [{"measurement": "block of potentiation by M.Ab.F11 of collagen-induced platelet aggregation", "setting": "human platelets [1]; [4]", "value": "did not inhibit platelet aggregation"}, {"measurement": "inhibition of the adhesion of platelets to immobilized M.Ab.F11", "setting": "platelets; peptide 500 μM", "value": "did not cause significant inhibition"}, {"measurement": "inhibition of M.Ab.F11 plus ADP-induced platelet aggregation", "setting": "human platelets [2]; [5]", "value": "no inhibitory effects"}, {"measurement": "inhibition of M.Ab.F11 plus ADP-induced platelet aggregation", "setting": "human platelets [2]; peptide approximately 50-500 μM, listed as SEQ ID NO: 3", "value": "do not inhibit aggregation"}]}, {"molecule": "dKSVTdREDTGTYTC-CONH2 [peptide 4D]", "values": [{"measurement": "size of the atherosclerotic plaques, en face assay (entire aorta, Oil red O)", "setting": "apoE KO mice; 3, 4 and 5 month period of injection, FIG. 9D", "value": "decrease in the size of the atherosclerotic plaques"}, {"measurement": "size of the plaque/lesion areas, proximal aorta", "setting": "apoE KO mice; 3, 4 and 5 months of injections", "value": "significant decreases"}, {"measurement": "size of the necrosis core area (NE) within the lesion", "setting": "apoE KO mice; 3 month period of injection, FIG. 10C", "value": "significant decrease"}, {"measurement": "physical appearance of the animals (secondary consequences of atherosclerosis)", "setting": "apoE KO mice; apoE KO mice, daily injection", "value": "prevented the degeneration of the animal's appearance"}, {"measurement": "physical appearance of the animals (secondary consequences of atherosclerosis)", "setting": "apoE KO mice; apoE KO mice, daily injection, listed as F11R peptide 4D", "value": "diminishes the secondary consequences"}, {"measurement": "loss of hair, itching/scratching and lesions on the skin", "setting": "apoE KO mice; apoE KO mice, daily injection, FIG. 7C-F", "value": "not observed"}, {"measurement": "rate and extent of atherosclerotic plaque formation in major arterial blood vessels", "setting": "apoE KO mice; apoE KO mice, summary of FIGS. 8-10", "value": "significantly decreases"}, {"measurement": "size of atherosclerotic plaques in the aortic arch", "setting": "apoE KO mice; three, four and five months of injection, hematoxylin-eosin sections, FIG. 8", "value": "beneficial effects"}, {"measurement": "size of the lesion area, proximal aorta (root assay)", "setting": "apoE KO mice; treated for 3 months, *P<0.05, FIG. 10B", "value": "significant decrease"}]}, {"molecule": "B1", "values": [{"measurement": "block of potentiation by M.Ab.F11 of collagen-induced platelet aggregation", "setting": "human platelets [1]; sF11R 1 μg/ml", "value": "completely blocked"}, {"measurement": "inhibition of M.Ab.F11-induced platelet aggregation", "setting": "human platelets [3]", "value": "effectively inhibited; also recorded: Inhibition"}, {"measurement": "block of potentiation by M.Ab.F11 of ADP-induced platelet aggregation", "setting": "human platelets [2]; sF11R 1 μg/ml", "value": "completely blocked"}]}]}
